In patent US12129233B2, “Water-soluble salts of cannabinoids, preparation and uses thereof” (priority 2021, dated 2024):
Counter-ions that a name gives are not always drawn.

Experiment: not given
Settings: in water; parent cannabinoid without base, literature value (footnotes a-f); cited from earlier work

Q: With `CCCCCc1cc(O)c2c(c1)OC(C)(C)C1CCC(C)=CC21` (centres unmarked) [drawing 25, Δ^9-tetrahydrocannabinol] as the compound, how does the Solubility read?
A: 0.0028^[b] mg/mL

Q: Which Solubility does the source give for `C=C(C)[C@@H]1CCC(C)=C[C@H]1c1c(O)cc(CCCCC)c(C(=O)O)c1O` [Cannabidiolic acid] here?
A: 2.2^[c] mg/mL

Q: Which Solubility does the source give for `CCCCCc1cc2c(c(O)c1C(=O)O)C1C=C(C)CCC1C(C)(C)O2` (centres unmarked) [drawing 32, Tetrahydrocannabinolic acid] here?
A: 0.048^[d] mg/mL

Q: With `C=C(C)[C@@H]1CCC(C)=C[C@H]1c1c(O)cc(CCCCC)cc1O` [Cannabidiol] as the compound, how does the Solubility read?
A: 0.0007^[a] mg/mL

Q: With `CCCc1cc(O)c2c(c1)OC(C)(C)C1CCC(C)=CC21` (centres unmarked) [drawing 37, Δ^9-Tetrahydrocannabivarin] as the compound, how does the Solubility read?
A: 0.009^[f] mg/mL

Experiment: physchem
Settings: water

Q: Which Solubility does the source give for `CCCCCc1cc(O)c(C/C=C(\C)CCC=C(C)C)c(O)c1` [drawing 35/drawing 36 1:1, 1-Benzylpyridinium cannabigerol salt (1:1)] here?
A: 1 mg/mL

Same assay, conditions: water, Solubility

Q: For `CCCCCc1cc2c(c(O)c1C(=O)O)C1C=C(C)CCC1C(C)(C)O2` (centres unmarked) [drawing 32/drawing 34 1:2, Meglumine Salt with Tetrahydrocannabinolic Acid (2:1)], which Solubility is on record?
A: 20 mg/mL

Q: For `CCCCCc1cc(O)c2c(c1)OC(C)(C)C1CCC(C)=CC21` (centres unmarked) [drawing 25/drawing 28 1:1, Meglumine Salt with THC (1:1)], which Solubility is on record?
A: 9 mg/mL

Same assay, conditions: water, Solubility, in water; synthesized salts (and cannabinol parent)

Q: With `CCCCCc1cc2c(c(O)c1C(=O)O)C1C=C(C)CCC1C(C)(C)O2` (centres unmarked) [drawing 32/drawing 33 1:2, Choline Salt with Tetrahydrocannabinolic Acid (2:1)] as the compound, how does the Solubility read?
A: 20 mg/mL

Q: For `C=C(C)C1CCC(C)=CC1c1c(O)cc(CCCCC)c(C(=O)O)c1O` (centres unmarked) [drawing 30/drawing 31 1:3, Choline Salt with Cannabidiolic Acid (3:1)], which Solubility is on record?
A: 24 mg/mL

Experiment: not given
Settings: in water; synthesized salts (and cannabinol parent)

Q: For `CCCCCc1cc(O)c2c(c1)OC(C)(C)c1ccc(C)cc1-2` [drawing 39/drawing 41 1:1, Acetylcholine Salt with Cannabinol (1:1)], which Solubility is on record?
A: 1 mg/mL

Q: Which Solubility does the source give for `CCCCCc1cc(O)c2c(c1)OC(C)(C)c1ccc(C)cc1-2` [drawing 39, Cannabinol, reference compound] here?
A: insoluble

Q: Which Solubility does the source give for “Procaine Salt with CBD (1:1) [drawing 17/drawing 22 1:1]” here?
A: 5 mg/mL

Q: With `CCCCCc1cc(O)c2c(c1)OC(C)(C)C1CCC(C)=CC21` (centres unmarked) [drawing 25/drawing 29 1:1, Agmatine Salt with THC (1:1)] as the compound, how does the Solubility read?
A: 0.2 mg/mL

Q: For “Procaine Salt with CBD (2:1) [drawing 17/drawing 22 1:2]”, which Solubility is on record?
A: 6 mg/mL

Q: For `CCCc1cc(O)c2c(c1)OC(C)(C)C1CCC(C)=CC21` (centres unmarked) [drawing 37/drawing 38 1:1, Tetrakis(2-hydroxyethyl)ammonium Salt with Δ^9-Tetrahydrocannabivarin (1:1)], which Solubility is on record?
A: 7 mg/mL

Q: For `CCCc1cc(O)c2c(c1)OC(C)(C)C1CCC(C)=CC21` (centres unmarked) [drawing 37/n^−Bu4N^+ 1:1, Tetrabutylammonium Salt with Δ^9-Tetrahydrocannabivarin (1:1)], which Solubility is on record?
A: 0.2 mg/mL

Q: For `CCCCCc1cc(O)c2c(c1)OC(C)(C)C1CCC(C)=CC21` [drawing 25/drawing 27 1:1, L-Lysine Salt with THC (1:1)], which Solubility is on record?
A: 2 mg/mL

Q: With `CCCCCc1cc(O)c2c(c1)OC(C)(C)C1CCC(C)=CC21` (centres unmarked) [drawing 25/drawing 26 1:1, Choline Salt with THC (1:1)] as the compound, how does the Solubility read?
A: 3 mg/mL

Q: Which Solubility does the source give for `CCCCCc1cc(O)c2c(c1)OC(C)(C)c1ccc(C)cc1-2` [drawing 39/Et4N^+ 1:1, Tetraethylammonium Salt with Cannabinol (1:1)] here?
A: 0.2 mg/mL
